This note sets out measurements from publication PMC5452050 (ACS Omega, 2017).

The target of one test is T1, FLT3 (Homo sapiens, UniProt P36888).
T1 sequence (P36888 27-993): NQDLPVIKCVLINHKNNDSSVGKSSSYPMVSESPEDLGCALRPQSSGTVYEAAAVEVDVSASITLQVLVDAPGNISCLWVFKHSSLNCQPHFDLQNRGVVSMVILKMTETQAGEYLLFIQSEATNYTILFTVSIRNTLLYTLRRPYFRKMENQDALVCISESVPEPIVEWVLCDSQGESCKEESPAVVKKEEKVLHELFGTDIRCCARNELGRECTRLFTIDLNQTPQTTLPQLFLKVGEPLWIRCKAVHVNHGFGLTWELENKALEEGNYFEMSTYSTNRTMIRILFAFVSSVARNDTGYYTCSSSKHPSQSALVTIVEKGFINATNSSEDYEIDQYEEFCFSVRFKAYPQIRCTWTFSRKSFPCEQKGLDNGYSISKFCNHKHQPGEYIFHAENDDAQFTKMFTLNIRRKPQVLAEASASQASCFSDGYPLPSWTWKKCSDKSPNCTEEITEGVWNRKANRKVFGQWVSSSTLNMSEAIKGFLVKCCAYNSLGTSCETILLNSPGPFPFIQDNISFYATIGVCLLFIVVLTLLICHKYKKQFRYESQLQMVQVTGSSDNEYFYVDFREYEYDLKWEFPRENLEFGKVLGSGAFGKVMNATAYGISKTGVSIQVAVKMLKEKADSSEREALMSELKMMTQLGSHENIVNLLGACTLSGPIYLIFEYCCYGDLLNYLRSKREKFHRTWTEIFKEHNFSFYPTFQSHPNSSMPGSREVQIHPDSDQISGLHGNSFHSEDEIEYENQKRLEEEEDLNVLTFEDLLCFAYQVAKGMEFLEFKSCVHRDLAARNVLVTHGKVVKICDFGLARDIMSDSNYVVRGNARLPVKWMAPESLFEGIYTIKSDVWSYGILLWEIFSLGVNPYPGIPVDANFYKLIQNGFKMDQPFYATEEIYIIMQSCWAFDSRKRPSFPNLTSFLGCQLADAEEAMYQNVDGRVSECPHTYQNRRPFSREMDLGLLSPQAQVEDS
Kind of test: Kd determination. The class given is binding.

A further test concerns the target T2, FLT3 (D835H) (Homo sapiens, UniProt P36888, D835H).
T2 sequence (P36888 27-993 D835H): T1 sequence (P36888 27-993) with D809H
Kind of test: Kd determination. The class given is binding.

Another test deals with T3, FLT3 (ITD) (Homo sapiens, UniProt P36888, ITD).
T3 sequence (P36888 564-993): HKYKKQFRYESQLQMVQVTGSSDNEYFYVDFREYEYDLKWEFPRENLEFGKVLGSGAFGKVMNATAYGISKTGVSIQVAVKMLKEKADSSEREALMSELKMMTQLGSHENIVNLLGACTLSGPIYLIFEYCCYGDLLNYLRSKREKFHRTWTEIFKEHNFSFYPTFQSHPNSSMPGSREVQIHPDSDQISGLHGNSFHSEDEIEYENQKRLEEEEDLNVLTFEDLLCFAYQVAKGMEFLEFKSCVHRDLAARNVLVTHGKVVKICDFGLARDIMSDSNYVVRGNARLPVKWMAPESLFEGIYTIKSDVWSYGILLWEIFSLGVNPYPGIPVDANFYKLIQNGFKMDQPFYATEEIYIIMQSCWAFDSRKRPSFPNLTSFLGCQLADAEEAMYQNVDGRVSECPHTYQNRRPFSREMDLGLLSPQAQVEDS
Description: Kd determination. The class given is binding.

Test [1] deals with MOLM13^FLT3-ITD/D835Y cells. Description: MOLM13 cell viability. The class given is cell-based. The note with it: Homo sapiens, MOLM-13, 72 h, read-out: MOLM13^FLT3-ITD/D835Y IC50.
Another test concerns the target T4, FLT3 (ITD, D835V) (Homo sapiens, UniProt P36888, D835V/ITD).
T4 sequence (P36888 564-993 D835V): T3 sequence (P36888 564-993) with D272V
Description: Kd determination. The class given is binding.

Substitutions are numbered along the chain they refer to.

As for `CC(C)Nc1ccnc(Nc2ccccc2-c2ccccc2)n1` [Compound 6a, N^2-([1,1′-Biphenyl]-2-yl)-N^4-isopropylpyrimidine-2,4-diamine], the dissociation constant (Kd) was over 10000 nM on FLT3; over 10000 nM on FLT3 (D835H); over 10000 nM at FLT3 (ITD); over 10000 nM at FLT3 (ITD, D835V). Also, the IC50 in test [1] is 4260 nM.

On to `c1cncc(-c2cccc(Nc3nccc(NC4CCCCC4)n3)c2)c1` [Compound 1, N^4-Cyclohexyl-N^2-(3-(pyridin-3-yl)phenyl)pyrimidine-2,4-diamine], for which the dissociation constant (Kd) worked out at 61 nM on FLT3; 22 nM at FLT3 (D835H); 31 nM at FLT3 (ITD); 7.2 nM at FLT3 (ITD, D835V). Besides, the IC50 in test [1] was found to be 1150 nM.

`CC(C)Nc1ccnc(Nc2cccc(-c3cccnc3)c2)n1` [Compound 5e, N^4-Isopropyl-N^2-(3-(pyridin-3-yl)phenyl)pyrimidine-2,4-diamine]: the Kd on FLT3 was 3.6 nM; at FLT3 (D835H), 1.2 nM; on FLT3 (ITD) it was 1.4 nM; on FLT3 (ITD, D835V) it was 0.36 nM. Also, the “fold more potent against FLT3 than PDGFRB and JAK1 JH2 domain (Kd)” value at FLT3 was “approximately 8 fold”. Also, the IC50 in test [1] amounted to 82 nM.
